Laboratory results: patent US20220395495A1 (priority 2019, published 2022)

Experiments:
Mtb H37Rv [1] = experiment: Mouse chronic infection model of tuberculosis, lung bacterial CFU, Inh or Rif with or without CQ; assay type: in vivo, BALB/c mice; conditions: mice, 10 mg/kg chloroquine added to first line TB drug (FIGS. 1B, 1C)
Mtb H37Rv [2] = experiment: Guinea pig infection model of tuberculosis, lung bacterial burden, Inh with or without CQ; assay type: in vivo, Outbred Hartley guinea pigs; conditions: Guinea pigs (FIG. 1F)
TB = experiment: Direct in vitro activity on TB
Mtb within macrophages = experiment: Drug tolerance and killing of Mtb within macrophages; assay type: cell-based; conditions: by deacidification
[3] = Plasma concentrations and exposures of CQ by intraperitoneal or oral route; conditions: in vivo
Mtb H37Rv [4] = experiment: Dexamethasone-induced reactivation (relapse) of Mtb in the lungs of chronically infected BALB/c mice after treatment; assay type: in vivo

With `CCN(CC)CCCC(C)Nc1ccnc2cc(Cl)ccc12` (stereo not shown) [Chloroquine] the “Bacterial killing and efficacy on addition of chloroquine to Isoniazid (H) or Rifampicin (R)” value (Mtb H37Rv [1]) was “enhanced bacterial killing and efficacy”, the “Bacterial killing and efficacy on addition of chloroquine to Isoniazid” value (Mtb H37Rv [2]) was “enhanced bacterial killing and efficacy” and the “Direct in vitro activity on TB” value (TB) was “no or limited direct in vitro activity on TB”. The “Effect on phenotypic drug tolerance and killing of Mtb within macrophages” value (Mtb within macrophages) was “counteracts phenotypic drug tolerance and accelerates killing of Mtb within macrophages” and the “Plasma concentrations and exposures, intraperitoneal versus oral route” value [3] was “nearly equivalent plasma concentrations and exposures”.

For `NNC(=O)c1ccncc1` [Inh alone, Isoniazid], the “Average log10CFU per lung” value (Mtb H37Rv [4]; reactivated Mtb in lungs after dexamethasone immunosuppression, 22nd week p.i., average over relapsed animals) was 4.2 (n = 5) log10CFU per lung and the Percentage relapse (Mtb H37Rv [4]; treatment stopped at 12 weeks p.i., 8 weeks without treatment, then dexamethasone 10 mg/kg i.p. x4 over 2 weeks, lungs at 22nd week p.i., n=5) was 100% (5/5).
